From US20220144840A1, “HETEROCYCLIC COMPOUNDS AND THEIR USE IN THE TREATMENT OF AMYLOID-RELATED DISEASES” (D.E. Shaw Research, LLC, priority 2019, published 2022)

Molecular target: T1, Beta-Amyloid (1-42), human (Homo sapiens, UniProt P05067)
T1 construct: Component B: Beta-Amyloid (1-42), human, 0.25 mg×2, lyophilized;; purchased AnaSpec AS-72214
Assay: Thioflavin T (ThT) Beta-Amyloid (1-42) Aggregation Assay
Type: biochemical
Conditions: 8 μM Beta-Amyloid (1-42), 50 μM ThT dye, 37° C., slope of fluorescence time course; read-out: IC50 for inhibiting amyloids
Method: This assay is used to evaluate the disclosed compounds' activities for inhibiting amyloids.
Thioflavin T (ThT) Beta-Amyloid (1-42) Aggregation Assay Protocol
SensoLyte Thioflavin T Beta-Amyloid (1-42) Aggregation Kit was used (AnaSpec Cat #AS-72214), which includes the following components:
Component A: Assay Buffer (Buffer components are not disclosed);
Component B: Beta-Amyloid (1-42), human, 0.25 mg×2, lyophilized;
Component C: 20 mM ThT solution; and
Component D: 20 mM Phenol Red (Control Inhibitor).
The following buffer was used: 0.005% Tween 20, Assay Buffer from Kit (Component A), and 1% DMSO (final including carryover from compounds).
The final reaction conditions include 8 μM Beta-Amyloid (1-42) and 50 μM ThT dye.
Corning cat #3573, Non-Treated, Black 384-well plate was used as assay plate.
Morin (Sigma Cat #: M4008-2G) was used as control inhibitor.
The reaction procedure is as follows: • 1. Prepare 2×ThT solution in Reaction Buffer; keep in the dark; • 2. Deliver 10 μl/well of 2×ThT solution into the wells; • 3. Prepare 2× Beta-Amyloid solution in Reaction Buffer in polypropylene tube, sonicate for 5 min; keep on ice until use; • 4. Deliver compounds in DMSO into the ThT solution by Acoustic technology (Echo550; nanoliter range), no pre-incubation; • 5. Immediately after compound addition, deliver 10 μL/well of Beta-Amyloid solution into the reaction well, buffer into “No peptide” wells instead; • 6. Immediately start measuring fluorescence intensity in EnVision, set at 37° C., (Ex/Em=450/485 nm) as a time-course measurement every 5 min (30 sec shaking between each read) for 3 hours; • 7. Analyze data by taking slope (signal/time) of linear portion (typically 5 to 45 min) of measurement (therefore time period taken for slope for analysis is different for each target); and • 8. Slope is calculated by using Excel, and curve fits are performed using Prism software.

T1 sequence (P05067 672-713 limits assumed): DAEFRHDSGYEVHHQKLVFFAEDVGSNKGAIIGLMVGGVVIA

Row | Compound | IC50
1 | O=[N+]([O-])c1ccc2nc(SCc3nc4ccc(Cl)cn4c3Br)[nH]c2c1 [Compound 2, 2-[([3-bromo-6-chloroimidazo[1,2-a]pyridin-2-yl]methyl)sulfanyl]-6-nitro-1H-1,3-benzodiazole] | < 200 µM
2 | Clc1ccc2nc(SCc3cn4cc(Cl)ccc4n3)[nH]c2c1 [Compound 1, 6-chloro-2-[([6-chloroimidazo[1,2-a]pyridin-2-yl]methyl)sulfanyl]-1H-1,3-benzodiazole] | < 100 µM
3 | Cn1c(CSc2nc3ncccn3n2)nc2cc(Cl)ccc21 [Compound 3, 5-chloro-1-methyl-2-([[1,2,4]triazolo[1,5-a]pyrimidin-2-ylsulfanyl]methyl)-1,3-benzodiazole] | < 200 µM

Continued, values first:

Row | IC50 | Compound
4 | < 200 µM | Cc1ccc2nc(CSc3nc4ccc(Cl)cc4[nH]3)cn2c1 [Compound 5]
5 | < 100 µM | CCn1c(SCc2cn3cc(C)ccc3n2)nc2ccccc21 [Compound 4, 1-ethyl-2-[([6-methylimidazo[1,2-a]pyridin-2-yl]methyl)sulfanyl]-1,3-benzodiazole]
